In the assay the target is T1, human recombinant LPA1 expressed in CHO cells (Homo sapiens, UniProt Q92633).
T1 construct: expressed in transfected cells; host or cells: CHO cells (CHO-hLPA1 cell line)
As to the kind of experiment: FLIPR calcium mobilization assay, LPA1 antagonism in CHO-hLPA1 cells. It counts as cell-based. The conditions noted are these: inhibition of LPA EC80 Ca2+ response, 30 min pre-incubation, range of activity. As to the method: The effectiveness of compounds of the present invention as LPA1 antagonist can be determined at the human recombinant LPA1 expressed in CHO cells, using a FLIPR assay in 384 well format.
CHO-hLPA1 cell lines are cultured in a humidified incubator at 5% CO2 in DMEM/F-12 (1:1) MIXTURE with 2 mM Glutamax, supplemented with 10% of Foetal Bovine Serum, 1 mM Sodium Pyruvate, 11 mM Hepes and 1× Penicillin/Streptomycin. CHO hLPA1 cells are seeded into black walled clear-bottom 384-well plates (#781091, Greiner Bio-One GmbH) at a density of 7,500 cells per well in 50 μl culture media and grown overnight in a 37° C. humidified CO2-incubator. Serial dilutions (1:3 or 1:4, 11 points CRC) of compounds are performed in 100% DMSO at 200× the final concentration. The compounds are diluted 1:50 prior to the experiment with Assay Buffer (20 mM HEPES, 145 mM NaCl, 5 mM KCl, 5.5 mM glucose, 1 mM MgCl2 and 2 mM CaCl2), pH 7.4 containing 0.01% Pluronic F-127) to obtain a solution corresponding to […] the final concentration in the assay (4×, 2% DMSO). The final concentration of DMSO in the assay will be 0.5% in each well. Medium is removed by aspiration and cells are then incubated with 30 μl of a loading solution containing 5 μM of the cytoplasmic Ca2+ indicator Cal-520 AM in Assay Buffer containing 2.5 mM probenecid for 30 min at 37° C. incubator (cell loading). The loaded cell plates are transferred into the FLIPR instrument and calcium responses are monitored during the on-line addition protocols. For testing of compounds, after the cell loading, 10 μl/well of 4× antagonists' solution was added onto the cells. After 30 min pre-incubation (at 37° C.), 10 μl/well of 5× concentrated LPA EC80 was added and Ca2+ mobilization responses was followed during the on-line addition protocol. Intracellular peak fluorescence values subtracted by baseline fluorescence are exported and analysed to determine IC50 values, respectively. The calcium response is expressed as percentage of the maximal inhibition of the EC80 agonist response.
The raw data obtained in unstimulated controls (DMSO, no LPA) are set as “100% inhibition”, while the raw data obtained in negative controls, i.e. in the absence of compounds and stimulating with LPA EC80, are set as “0% inhibition”.
The raw data (peak height expressed as relative fluorescence units) are normalized and transformed into “percent of inhibition”. Curve fitting and pIC50 (−Log IC50) estimations are carried out using a four-parameter logistic model using XLfit Software.

The IC50 is the concentration at which inhibition is half-maximal.

T1 sequence (Q92633 whole entry): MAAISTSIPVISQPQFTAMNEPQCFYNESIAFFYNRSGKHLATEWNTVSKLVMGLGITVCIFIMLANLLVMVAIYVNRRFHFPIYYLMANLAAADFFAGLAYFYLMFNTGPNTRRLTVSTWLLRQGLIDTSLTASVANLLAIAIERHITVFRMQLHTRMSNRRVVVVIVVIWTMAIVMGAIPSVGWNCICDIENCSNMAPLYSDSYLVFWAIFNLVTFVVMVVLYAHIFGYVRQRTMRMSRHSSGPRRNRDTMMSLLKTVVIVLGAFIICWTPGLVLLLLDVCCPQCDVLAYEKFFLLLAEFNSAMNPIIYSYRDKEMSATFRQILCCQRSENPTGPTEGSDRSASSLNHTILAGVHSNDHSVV

As to `Cc1nc(-c2sccc2NC(=O)O[C@H](C)c2ccccc2Cl)ccc1NC(=O)C1C(C(=O)O)C1(F)F` (single isomer, unassigned; diastereomer 2) [Compound 30], the IC50 lay in the range of 0.1 to 0.2 µM.

With `Cc1nc(-c2onc(C)c2CNc2nccc(-c3cnccn3)n2)ccc1NC(=O)[C@@H]1[C@@H](C(=O)O)C1(F)F` [Compound 23, (1S,3S)-2,2-difluoro-3-((2-methyl-6-(3-methyl-4-(((4-(pyrazin-2-yl)pyrimidin-2-yl)amino)methyl)isoxazol-5-yl)pyridin-3-yl)carbamoyl)cyclopropane-1-carboxylic acid], the concentration for half-maximal inhibition (IC50) was less than 0.05 µM.

For the compound `Cc1nc(-c2onc(C)c2CNc2nccc(-c3cccnc3)n2)ccc1NC(=O)[C@@H]1[C@@H](C(=O)O)C1(F)F` [Compound 25, (1S,3S)-2,2-difluoro-3-((2-methyl-6-(3-methyl-4-(((4-(pyridin-3-yl)pyrimidin-2-yl)amino)methyl)isoxazol-5-yl)pyridin-3-yl)carbamoyl)cyclopropane-1-carboxylic acid], the IC50 was less than 0.05 µM.

With `Cc1nc(-c2onc(C)c2NC(=O)O[C@H](C)c2ccccc2Cl)ccc1NC(=O)C1C(c2nsc(=O)[nH]2)C1(F)F` (stereo partly drawn) [Compound 43, (R)-1-(2-chlorophenyl)ethyl (5-(5-(2,2-difluoro-3-(5-oxo-4,5-dihydro-1,2,4-thiadiazol-3-yl)cyclopropane-1-carboxamido)-6-methylpyridin-2-yl)-3-methylisoxazol-4-yl)carbamate], the IC50 was less than 0.05 µM.

Consider `Cc1noc(-c2ccc(N(C)C(=O)C3C(C(=O)O)C3(F)F)cc2)c1NC(=O)O[C@H](C)c1ccccc1Cl` (single isomer, unassigned; diastereomer 2) [Compound 9], for which the IC50 fell in the range of 0.05 to 0.1 µM.

In the case of `Cc1nc(-c2onc(C)c2NC(=O)O[C@H](C)c2ccccc2Cl)ccc1NC(=O)C1C(c2noc(=S)[nH]2)C1(F)F` (stereo partly drawn) [Compound 41, (R)-1-(2-chlorophenyl)ethyl (5-(5-(2,2-difluoro-3-(5-thioxo-4,5-dihydro-1,2,4-oxadiazol-3-yl)cyclopropane-1-carboxamido)-6-methylpyridin-2-yl)-3-methylisoxazol-4-yl)carbamate], the half-inhibitory concentration (IC50) was less than 0.05 µM.

Turning to `Cc1nc(-c2onc(C)c2NC(=O)O[C@H](C)c2ccccc2Cl)ccc1NC(=O)C1C(c2nnn[nH]2)C1(F)F` (mixture of isomers) [Compound 14, (R)-1-(2-chlorophenyl)ethyl (5-(5-(2,2-difluoro-3-(1H-tetrazol-5-yl)cyclopropane-1-carboxamido)-6-methylpyridin-2-y1)-3-methylisoxazol-4-yl)carbamate, mix of Trans diastereomers], the IC50 was less than 0.05 µM.

Turning to `Cc1nc(-c2onc(C)c2CNc2nccc(C3CCCCC3)n2)ccc1NC(=O)C1C(C(=O)O)C1(F)F` (single isomer, unassigned; enantiomer 1) [Compound 19, Single Enantiomer 1 of Trans-3-((6-(4-(((4-cyclohexylpyrimidin-2-yl)amino)methyl)-3-methylisoxazol-5-yl)-2-methylpyridin-3-yl)carbamoyl)-2,2-difluorocyclopropane-1-carboxylic acid], the half-inhibitory concentration (IC50) was less than 0.05 µM.

Turning to `Cc1nc(-c2onc(C)c2NC(=O)O[C@H](C)c2ccccc2Cl)ccc1CNC(=O)C1C(C(=O)O)C1(F)F` (mixture of isomers) [Compound 17, 3-(((6-(4-((((R)-1-(2-chlorophenyl)ethoxy)carbonyl)amino)-3-methylisoxazol-5-yl)-2-methylpyridin-3-yl)methyl)carbamoyl)-2,2-difluorocyclopropane-1-carboxylic acid, mix of Trans diastereomers], the IC50 is less than 0.05 µM.

Take `C[C@@H](OC(=O)Nc1cccn1-c1ccc(NC(=O)[C@@H]2[C@@H](C(=O)O)C2(F)F)cc1)c1ccccc1Cl` [Compound 39]: the IC50 lay within 0.1 to 0.2 µM.

Consider `Cc1nc(-c2nnn(C)c2NC(=O)O[C@H](C)c2ccccc2Cl)ccc1NC(=O)C1C(C(=O)O)C1(F)F` (single isomer, unassigned) [Compound 32], for which the IC50 was less than 0.05 µM.

Consider `Cc1nc(-c2onc(C)c2CNc2nccc(-c3ccco3)n2)ccc1NC(=O)[C@@H]1[C@@H](C(=O)O)C1(F)F` [Compound 22, (1S,3S)-2,2-difluoro-3-((6-(4-(((4-(furan-2-yl)pyrimidin-2-yl)amino)methyl)-3-methylisoxazol-5-yl)-2-methylpyridin-3-yl)carbamoyl)cyclopropane-1-carboxylic acid], for which the 50% inhibitory concentration (IC50) is 0.1 to 0.2 µM.

Consider `C[C@@H](OC(=O)Nc1cn(C)nc1-c1ccc(NC(=O)[C@@H]2[C@@H](C(=O)O)C2(F)F)cc1)c1ccccc1Cl` [Compound 38, (1S,3S)-3-((4-(4-((((R)-1-(2-chlorophenyl)ethoxy)carbonyl)amino)-1-methyl-1H-pyrazol-3-yl)phenyl)carbamoyl)-2,2-difluorocyclopropane-1-carboxylic acid], for which the IC50 lay in the range of 0.1 to 0.2 µM.

With `Cc1nc(-c2onc(C)c2NC(=O)O[C@H](C)c2ccccc2Cl)ccc1NC(=O)C1C(C(=O)O)C1(F)F` (stereo partly drawn) [Compound 4, 3-((6-(4-((((R)-1-(2-chlorophenyl)ethoxy)carbonyl)amino)-3-methylisoxazol-5-yl)-2-methylpyridin-3-yl)carbamoyl)-2,2-difluorocyclopropane-1-carboxylic acid], the IC50 is less than 0.05 µM.

`Cc1noc(-c2ccc(N(C)C(=O)C3C(C(=O)O)C3(F)F)cc2)c1NC(=O)O[C@H](C)c1ccccc1Cl` (single isomer, unassigned) [Compound 8]: the half-maximal inhibitory concentration (IC50) lay within 0.1 to 0.2 µM.

As for `Cc1nc(-c2snc(C)c2NC(=O)O[C@H](C)c2ccccc2Cl)ccc1NC(=O)C1C(C(=O)O)C1(F)F` (single isomer, unassigned; diastereomer 1) [Compound 31], the IC50 is less than 0.05 µM.

With `Cc1nc(-c2onc(C)c2NC(=O)O[C@H](C)c2ccccc2Cl)ccc1CNC(=O)C1C(C(=O)O)C1(F)F` (mixture of isomers) [Compound 16, 3-(((6-(4-((((R)-1-(2-chlorophenyl)ethoxy)carbonyl)amino)-3-methylisoxazol-5-yl)-2-methylpyridin-3-yl)methyl)carbamoyl)-2,2-difluorocyclopropane-1-carboxylic acid, mix of Cis diastereomers], the IC50 fell in the range of 0.05 to 0.1 µM.

For the compound `Cc1nc(-c2onc(C)c2Nc2cncc(OC(C)C)n2)ccc1NC(=O)C1C(C(=O)O)C1(F)F` (single isomer, unassigned; diastereomer 2) [Compound 11], the half-maximal inhibitory concentration (IC50) was less than 0.05 µM.

On to `Cc1noc(-c2ccc(NC(=O)[C@@H]3[C@@H](C(=O)O)C3(F)F)cc2)c1COC(=O)N(C)C1CCCC1` (racemic) [Compound 36, 3-((4-(4-(((cyclopentyl(methyl)carbamoyl)oxy)methyl)-3-methylisoxazol-5-yl)phenyl)carbamoyl)-2,2-difluorocyclopropane-1-carboxylic acid, mix of Trans diastereomers], for which the IC50 fell in the range of 0.1 to 0.2 µM.

With `C[C@@H](OC(=O)Nc1c(-c2ccc(NC(=O)[C@@H]3[C@@H](C(=O)O)C3(F)F)cc2)nnn1C)c1ccccc1Cl` [Compound 35, (1S,3S)-3-((4-(5-((((R)-1-(2-chlorophenyl)ethoxy)carbonyl)amino)-1-methyl-1H-1,2,3-triazol-4-yl)phenyl)carbamoyl)-2,2-difluorocyclopropane-1-carboxylic acid], the half-inhibitory concentration (IC50) is less than 0.05 µM.

As for `Cc1nc(-c2onc(C)c2NC(=O)O[C@H](C)c2ccccc2Cl)ccc1NC(=O)[C@@H]1[C@@H](c2n[nH]c(=S)n2C)C1(F)F` [Compound 44, (R)-1-(2-chlorophenyl)ethyl (5-(5-((1S,3S)-2,2-difluoro-3-(4-methyl-5-thioxo-4,5-dihydro-1H-1,2,4-triazol-3-yl)cyclopropane-1-carboxamido)-6-methylpyridin-2-yl)-3-methylisoxazol-4-yl)carbamate], the IC50 is 0.05 to 0.1 µM.

`C[C@@H](OC(=O)Nc1ncoc1-c1ccc(NC(=O)[C@@H]2[C@@H](C(=O)O)C2(F)F)cc1)c1ccccc1Cl` [Compound 40, methyl (1S,3S)-3-((4-(4-((((R)-1-(2-chlorophenyl)ethoxy)carbonyl)amino)oxazol-5-yl)phenyl)carbamoyl)-2,2-difluorocyclopropane-1-carboxlic acid]: the half-inhibitory concentration (IC50) fell in the range of 0.1 to 0.2 µM.
